Broadly, the stoichiometry N is a count of units in the complex or per binding partner.

Assay [1] concerns the target T1, EcOmpF (Escherichia coli, UniProt P02931).
T1 construct: gene ompF; full-length, untagged (pBAD24-EcOmpF), expressed in E. coli BL21(DE3), purified from outer membranes; trimer; reconstituted in liposomes
T1 sequence (P02931 23-362): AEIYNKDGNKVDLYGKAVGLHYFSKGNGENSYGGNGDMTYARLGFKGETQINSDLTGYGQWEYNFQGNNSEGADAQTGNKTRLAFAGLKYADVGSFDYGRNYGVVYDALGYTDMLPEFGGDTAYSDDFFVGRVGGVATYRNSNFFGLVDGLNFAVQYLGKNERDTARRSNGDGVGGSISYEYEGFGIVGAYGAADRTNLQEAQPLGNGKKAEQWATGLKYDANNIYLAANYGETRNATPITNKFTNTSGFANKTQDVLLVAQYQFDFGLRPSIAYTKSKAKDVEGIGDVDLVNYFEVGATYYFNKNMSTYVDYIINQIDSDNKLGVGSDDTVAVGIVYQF
Nature of the assay: proteoliposome swelling, decrease in A400. It counts as biochemical. The following applies: diffusive transport through general porin, no binding constant, 10 mM HEPES-NaOH pH 7.5, 12 mM stachyose inside.

The target of assay [2] is T2, FNLLGLLA_00518 β-barrel (OmpA-like) (Veillonella parvula, UniProt A0AB38YQ02).
T2 construct: gene CYJ21_000020; beta-barrel region, residues 21-200 (from plasmid name pB22-00518_21-200); TamB signal peptide and N-terminal His7; expressed in E. coli C43(DE3) delta-cyoABCD; reconstituted in liposomes
Put plainly: proteoliposome swelling, decrease in A400. It counts as biochemical. The following applies: diffusive transport through channel, no binding constant; much slower than VpOmpM1 and EcOmpF; 10 mM HEPES-NaOH pH 7.5, 12 mM stachyose inside.

Assay [3] addresses T3, VpOmpM1 (full-length) (Veillonella parvula, UniProt A0A100YN03).
T3 construct: gene KHZ90_07665; full-length without native signal peptide; E. coli TamB signal peptide and N-terminal His7 added (pJW46); expressed in E. coli C43(DE3) delta-cyoABCD; homotrimer; reconstituted in liposomes
Put plainly: proteoliposome swelling, decrease in A400. It counts as biochemical. Conditions: diffusive transport through general porin, no binding constant; 10 mM HEPES-NaOH pH 7.5, 12 mM stachyose inside; rates normalised to EcOmpF with arabinose.

For assay [4], the target named is VpOmpM1 (OmpM1 from Veillonella parvula), full-length, expressed in E. coli (Veillonella parvula). Nature of the assay: cryo-EM structure; single particle; purified VpOmpM1 from E. coli (11.6 mg/ml) or V. parvula (8 mg/ml) in DM detergent, grids plunge-frozen at 4 °C; reconstructions without symmetry (C1) and with C3.
In assay [5] the target is VpOmpM1 stalk construct (residues 22-107) (Veillonella parvula). Nature of the assay: crystal structure; stalk construct 22-107 at ~20 mg/ml; 0.1 M citric acid pH 3.5, 2.0 M ammonium sulphate, 20 °C; three chains in the asymmetric unit.

Regarding `OC1OC[C@H](O)[C@H](O)[C@H]1O` (some centres unmarked) [arabinose], the “proteoliposome swelling, decrease in A400” value in assay [1] (reference condition to which all rates are normalised) was “All data were normalized to EcOmpF-containing liposome swelling in the presence of arabinose”.

For the molecule `NCC(=O)O` [glycine], the “proteoliposome swelling, decrease in A400” value in assay [2] is “could only transport putrescine and glycine at much slower rates than VpOmpM1 and EcOmpF”.

As to `C[C@H](O)C(=O)O` [lactate], the “proteoliposome swelling, decrease in A400” value in assay [3] was “VpOmpM1 could transport lactate, which is essential for V. parvula growth, and putrescine”.

`NCCCCN` [putrescine]: the “proteoliposome swelling, decrease in A400” value in assay [1] (rates normalised to EcOmpF with arabinose) was “putrescine and glycine at much slower rates than VpOmpM1 and EcOmpF”; in assay [2], “could only transport putrescine and glycine at much slower rates than VpOmpM1 and EcOmpF”; in assay [3], “VpOmpM1 could transport lactate, which is essential for V. parvula growth, and putrescine”.

In assay [4], “VpOmpM1 (OmpM1 from Veillonella parvula), full-length, expressed in E. coli (natural protein)” returned a stoichiometry N of 3.

As to “VpOmpM1 stalk construct (residues 22-107) (domain or fragment)”, the stoichiometry N in assay [5] was determined as 3.

The values above are taken from publication PMC10628300, “Dual function of OmpM as outer membrane tether and nutrient uptake channel in diderm Firmicutes” (Nature Communications, 2023).
